Measurements from patent US20220195383A1, “METHOD FOR PRODUCING PLURIPOTENT STEM CELLS” (KANEKA CORPORATION, priority 2019, published 2022).

How the values were obtained:
WNT3A protein [1] = test: ELISA analysis of WNT3A protein in culture supernatant, suspension culture with IWP-2, line 201B7; format: cell-based, human; conditions: IWP-2 2 μM, line 201B7, day 5 (Example 1)
Procedure: A reagent and a reaction plate attached to a WNT3A ELISA kit (Aviva Systems Biology Corporation) were returned to room temperature. A vial of WNT3A Standard attached to the kit was subjected to centrifugal separation, and a powder in the vial was collected. After adding 1 mL of a diluent solution attached to the kit and mixing, the mixture was left to stand at room temperature for 15 minutes to prepare a WNT3A solution at a final concentration of 10 ng/mL. Based on the WNT3A solution at a final concentration of 10 ng/mL, the solution was diluted with the diluent solution attached to the kit to create WNT3A solution dilution series at final concentrations of 0.156 ng/mL, 0.313 ng/mL, 0.625 ng/mL, 1.25 ng/mL, 2.5 ng/mL, and 5 ng/mL. The dilution series of 0.156 ng/mL to 10 ng/mL and the culture supernatant on day 5 of the culture were added to the reaction plate at 100 μL/well, and a plate seal was attached. […]
Absorbance was measured at 450 nm (corrected wavelength 540 nm) using SpectraMax i3x Multi-Mode Detection Platform (Molecular Devices, LLC.), and a concentration of the WNT3A protein contained in the medium was calculated. Furthermore, an amount of the WNT3A protein of cells (pg/10^4 cells) was calculated from the results of measuring the number of living cells on day 5 of the culture according to the following equation. […]

[2] = test system: human iPS cell line 201B7; test: Quantitative real-time PCR of marker genes after suspension culture with IWP-2; format: cell-based; conditions: IWP-2 2 μM, line 201B7, day 10 (Example 1)
Procedure: Cells on day 10 of the culture were treated with Accutase for 3 to 10 minutes and dispersed into single cells by pipetting. These cells were lysed using TRIzol™ Reagent (Thermo Fisher Scientific K.K.). Total RNA was isolated and purified from a cell solution obtained by lysing with TRIzol™ Reagent using a PureLink (registered trademark) RNA Mini kit (Thermo Fisher Scientific K.K.). A concentration of the purified RNA was measured using BioSpec-nano (Shimadzu Corporation), and 40 ng was separated. 2 μL of ReverTra Ace (registered trademark) qPCR RT Master Mix (TOYOBO CO., LTD.) and RNase Free dH2O were added to the separated RNA to prepare 10 μL. cDNA synthesis was performed using SimpliAmp Thermal Cycler (Thermo Fisher Scientific K.K.). […] A synthesized cDNA solution was diluted 100-fold with 10 mM Tris-HCl pH 8.0 (NACALAI TESQUE, INC.) and added to a 384-well PCR plate (Thermo Fisher Scientific K.K.) at 5 μL/well. KOD SYBR® qPCR Mix (TOYOBO CO., LTD.), a Forward primer prepared to 50 μM, a Reverse primer prepared to 50 μM, and DEPC-treated water (NACALAI TESQUE, INC.) were mixed at a ratio of 100:1:1:48. This mixed solution was added to the above-mentioned 384-well PCR plate at 15 μL/well and mixed. For the primers, bACT, OCT4, SOX2, Nanog, Brachyury, and SOX17 were used. The 384-well PCR plate was subjected to centrifugal separation to remove air bubbles in the wells, and quantitative real-time PCR analysis was performed using QuantStudio 7 Flex Real-Time PCR System (Thermo Fisher Scientific K.K.).
Suspension culture was performed under a condition in which an amount of WNT protein contained in a unit of a medium in contact with a unit area of a cell surface was maintained at 2.9×10^2 μg/mL·cm^2 or less. Specifically, the human iPS cell line 201B7 maintenance-cultured by the method in Step 1 of Example 1 was treated with Accutase for 3 to 5 minutes to release the cells from the dish. The cells were dispersed into single cells by pipetting. These cells were suspended in a StemFit (registered trademark) AK02N medium containing Y-27632 at a final concentration of 10 μM. A part of the cells was stained with trypan blue to measure the number of living cells. A cell suspension was prepared so that it contained 2×10^5 cells per mL using the StemFit (registered trademark) AK02N medium containing Y-27632 a final concentration of 10 μM. 4 mL of the cell suspension per well was seeded in a 6-well plate for suspension culture (Sumitomo Bakelite Co., Ltd.). IWP-2 (FUJIFILM Wako Pure Chemical Corporation), which is a WNT protein secretion inhibitor, was added to the seeded wells so that a final concentration was 2 μM. The plate in which the cells were seeded was gyrated on a rotary shaker (Optima Instruments) at a speed of 83 rpm so that a gyrating width (diameter) drew a circle of 25 mm along a horizontal plane, and suspension culture was performed at 37° C. in a 5% CO2 environment. The day when the cells were seeded was defined as day 0 of the culture. Passage was performed on day 5 of the culture, and suspension culture was performed until day 10 of the culture. Medium exchange was performed as follows. A total amount of the medium containing cell aggregates was recovered in a centrifuge tube and left to stand for about 5 minutes to precipitate the cell aggregates. Thereafter, the culture supernatant was removed. […]

WNT3A protein [3] = test: ELISA analysis of WNT3A protein in culture supernatant, suspension culture with IWP-2, line RPChiPS771-2; format: cell-based, human; conditions: IWP-2 2 μM, line RPChiPS771-2, day 5 (Example 2)
[4] = test system: human iPS cell line RPChiPS771-2; test: Quantitative real-time PCR of marker genes after suspension culture with IWP-2; format: cell-based; conditions: IWP-2 2 μM, line RPChiPS771-2, day 10 (Example 2)

For Cc1ccc2nc(NC(=O)CSc3nc4c(c(=O)n3-c3ccccc3)SCC4)sc2c1 [IWP-2], the “Amount of WNT3A protein contained in unit of medium in contact with unit area of cell surface, average value (n = 10)” value (WNT3A protein [1]) was 2.7 × 10^2 μg/mL · cm^2, the “Concentration of WNT3A protein contained in medium” value (WNT3A protein [1]) was 83.9 pg/mL and the “Relative gene expression level with respect to ACTB in 2 ^∧ Ct, Nanog” value [2] was 1.30 × 10^−2. For the same compound, the “Relative gene expression level with respect to ACTB in 2 ^∧ Ct, OCT4” value [2] was 1.77 × 10^−1, the “Relative gene expression level with respect to ACTB in 2 ^∧ Ct, SOX2” value [2] was 2.83 × 10^−2 and the “Relative gene expression level with respect to ACTB in 2 ^∧ Ct, Brachyury” value ([2]; dash = not detected) was “not detected”. For the same compound, the “Relative gene expression level with respect to ACTB in 2 ^∧ Ct, SOX17” value ([2]; dash = not detected) was “not detected”, the “Concentration of WNT3A protein contained in medium” value (WNT3A protein [3]) was 53.3 pg/mL and the “Relative gene expression level with respect to ACTB in 2 ^∧ Ct, Nanog” value [4] was 8.16 × 10^−1. The “Relative gene expression level with respect to ACTB in 2 ^∧ Ct, OCT4” value [4] was 5.72 × 10^−1, the “Relative gene expression level with respect to ACTB in 2 ^∧ Ct, SOX2” value [4] was 2.31 × 10^−2 and the “Relative gene expression level with respect to ACTB in 2 ^∧ Ct, Brachyury” value ([4]; dash = not detected) was “not detected”. For the same compound, the “Relative gene expression level with respect to ACTB in 2 ^∧ Ct, SOX17” value ([4]; dash = not detected) was “not detected”.
